From PubChem BioAssay (NCI)
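1) Cells in 96-well plates. 2) Compound, 48 h, 5 concentrations. 3) Linear interpolation between surrounding doses. 4) Unreached endpoint = highest concentration. GI50 = concentration required for 50% inhibition of growth. TGI is the concentration that stops growth completely.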

Columns and labels:
Assay in all cases: NCI tumour cell line growth inhibition, 48 h
DU-145 prostate = tested on: DU-145 prostate
HL-60(TB) leukemia = tested on: HL-60(TB) leukemia
HOP-92 NSCLC = tested on: HOP-92 NSCLC
HS 578T breast = tested on: HS 578T breast
KM12 colon = tested on: KM12 colon
LOX IMVI melanoma = tested on: LOX IMVI melanoma
MDA-MB-231 breast = tested on: MDA-MB-231 breast
NCI-H522 lung = tested on: NCI-H522 lung
UACC-257 melanoma = tested on: UACC-257 melanoma
EKVX NSCLC = tested on: EKVX NSCLC

Row | SMILES | TGI (DU-145 prostate) [µM] | TGI (HL-60(TB) leukemia) [µM] | TGI (HOP-92 NSCLC) [µM] | TGI (HS 578T breast) [µM] | TGI (KM12 colon) [µM] | TGI (LOX IMVI melanoma) [µM] | TGI (MDA-MB-231 breast) [µM] | TGI (NCI-H522 lung) [µM] | TGI (UACC-257 melanoma) [µM] | TGI (EKVX NSCLC) [µM] | GI50 (HL-60(TB) leukemia) [µM] | GI50 (DU-145 prostate) [µM] | GI50 (EKVX NSCLC) [µM] | GI50 (HOP-92 NSCLC) [µM] | GI50 (HS 578T breast) [µM] | GI50 (KM12 colon) [µM] | GI50 (LOX IMVI melanoma) [µM] | GI50 (MDA-MB-231 breast) [µM] | GI50 (NCI-H522 lung) [µM] | GI50 (UACC-257 melanoma) [µM]
1 | Cc1cn(C2C=CC(COP(=O)(OCc3ccc([N+](=O)[O-])o3)N(C)CCCCCl)O2)c(=O)[nH]c1=O (stereo not given) | 26.1 | 32.3 | 10.9 | 9.89 | 24.1 | 13.5 | 25.9 | 3.97 | 18.4 | – | – | – | – | – | – | – | – | – | – | –
2 | CCCCN(CCCC)CCC(O)c1cc(-c2ccc(C(F)(F)F)cc2)nc(-c2ccc(C(F)(F)F)cc2)c1 (stereo not given) | > 100 | > 100 | > 100 | – | – | > 100 | > 100 | > 100 | > 100 | > 100 | – | – | – | – | – | – | – | – | – | –
3 | NC1C=NNC1=O (stereo not given) | – | > 100 | – | – | > 100 | > 100 | – | > 100 | > 100 | > 100 | – | – | – | – | – | – | – | – | – | –
4 | CC(C)=Cc1cc(C)c2c3c(c(O)c(O)c(C)c13)C(C)=CC2=O | 89 | 67 | 38.6 | 74.4 | 45.8 | 38 | 64.4 | 41.2 | > 100 | – | – | – | – | – | – | – | – | – | – | –
5 | COc1cc2c(cc1OC)C1c3ccccc3CCN1CCC2 (stereo not given) | > 100 | > 100 | – | – | > 100 | > 100 | > 100 | – | > 100 | > 100 | – | – | – | – | – | – | – | – | – | –
6 | CC1C2CCC3C(O)C2(CC(O)C2(O)C1CC(O)C2(C)C)CC3(C)O (stereo not given) | > 100 | > 100 | > 100 | > 100 | > 100 | > 100 | > 100 | > 100 | > 100 | > 100 | – | – | – | – | – | – | – | – | – | –
7 | COc1ccc(C(=O)NC2=C(Cl)C(=O)c3ccccc3C2=O)cc1 | 15.2 | > 100 | 2.73 | 33.5 | 12.2 | 6.66 | 14.6 | 1.49 | 4.5 | 26.1 | – | – | – | – | – | – | – | – | – | –
8 | OC(c1ccc(Cl)cc1)(c1ccc(Cl)cc1)c1cncnc1 | 59.8 | – | 31.2 | 66.6 | 31.9 | > 100 | 33.9 | – | 40.5 | – | – | – | – | – | – | – | – | – | – | –
9 | O=C(Nn1c(-c2cccs2)nc2ccc(I)cc2c1=O)c1ccccc1 | 46.7 | 99.7 | 51.7 | – | 81.2 | 46.9 | – | 59.5 | 31.1 | 70.5 | 33.7 | – | – | – | – | – | – | – | – | –
10 | Nc1c(OCC(=O)O)ccc2cc(S(=O)(=O)O)ccc12 | > 100 | > 100 | – | > 100 | > 100 | > 100 | > 100 | > 100 | > 100 | – | – | – | – | – | – | – | – | – | – | –
11 | O=NN1C(c2ccccc2)C2CCCC(C2=O)C1c1ccccc1 (stereo not given) | – | 44.7 | 55.6 | – | 99.2 | 54.9 | – | 46.4 | 66.2 | > 79.5 | – | – | – | – | – | – | – | – | – | –
12 | c1ccc2c(c1)OCCc1cn[nH]c1-2 | – | > 100 | > 100 | – | > 100 | > 100 | – | > 100 | > 100 | > 100 | – | – | – | – | – | – | – | – | – | –
13 | CN(CCO)Cc1ncccc1O | > 100 | > 100 | > 100 | > 100 | > 100 | > 100 | > 100 | > 100 | > 100 | > 100 | – | – | – | – | – | – | – | – | – | –
14 | O=C1CCCC/C1=C1/SC(=Nc2ccccc2)C(=Nc2ccccc2)N1c1ccccc1 | > 100 | > 100 | > 100 | > 100 | > 100 | – | > 100 | > 100 | – | – | – | – | – | – | – | – | – | – | – | –
15 | CCc1c2cc(OC)c(OC)cc2cc2c3cc(OC)c(OC)cc3cc[n+]12 (tested in a mixture with another compound) | > 54.8 | > 96.8 | > 80 | > 89.1 | > 61.5 | > 63 | 48.8 | 34.3 | 59.3 | > 88 | – | – | – | – | – | – | – | – | – | –
16 | O=C(O)C1OC1C(=O)O (stereo not given) | > 100 | – | > 100 | > 100 | > 100 | > 100 | > 100 | > 100 | > 100 | > 100 | – | – | – | – | – | – | – | – | – | –
17 | CN1CC(c2ccccc2)C(O)(C2(c3ccccc3)CN(C)CC(c3ccccc3)C2=O)C(c2ccccc2)C1 (stereo not given) | > 100 | > 100 | > 100 | 94.2 | > 100 | > 100 | > 100 | > 100 | > 100 | > 100 | – | – | – | – | – | – | – | – | – | –
18 | CC[C@@]1(OC(=O)CN(C)C)C(=O)OCc2c1cc1n(c2=O)Cc2cc3c(N)cccc3nc2-1 | 0.081 | 10.7 | 0.785 | 58 | 0.342 | 0.162 | > 100 | 3.36 | 0.981 | 3.58 | 0.0226 | 0.0115 | 0.262 | 0.0239 | 2.03 | 0.102 | 0.014 | 1.07 | 0.0744 | 0.0933
19 | C[C@]12Cc3cnc(-c4ccccc4)nc3C[C@@H]1CC[C@@H]1[C@@H]2CC[C@@]2(C)[C@H]1CC[C@]2(C)O | 44.1 | > 100 | 54.4 | 65.2 | > 67.8 | 31.3 | 73.1 | 31.2 | 44.9 | > 87.1 | – | – | – | – | – | – | – | – | – | –
20 | CCC1C(C#N)=C(O)NC(O)=C1C#N | – | – | > 100 | – | > 100 | > 100 | – | > 100 | > 100 | > 100 | – | – | – | – | – | – | – | – | – | –
21 | O=C(O)C(O)(c1ccc(-c2ccccc2)cc1)c1ccc(-c2ccccc2)cc1 | 40.6 | 49.7 | 41.4 | – | 40.9 | 31.8 | 79.1 | 47.5 | > 100 | 70.9 | – | – | – | – | – | – | – | – | – | –
22 | Clc1cc2ccccc2c2ccccc12 | > 100 | > 100 | 87.3 | > 100 | > 100 | > 100 | > 100 | > 100 | > 100 | > 100 | – | – | – | – | – | – | – | – | – | –
23 | COc1ccc(NC(=S)NNC(=O)c2nsc3ccccc23)cc1 | – | 60.8 | 83.5 | – | > 100 | > 100 | – | – | > 100 | > 100 | – | – | – | – | – | – | – | – | – | –
24 | Clc1ccc(C2CC(c3cccc(Nc4ccncc4)c3)=NN2c2ccc(Cl)cc2)cc1 (stereo not given) | 3.49 | – | 2.79 | – | – | – | – | – | – | 3.04 | – | 1.88 | 1.58 | 1.38 | – | – | – | – | – | –
